# Source: patent publication US10703733B2, “MCL-1 inhibitors” (Gilead Sciences, Inc., priority 2018, dated 2020)
# Where two headings read alike, the source gives them in different places.
# Key:
# SKBR3 cells = experiment: SKBR3 Cell Viability Assay (CellTiter Glo); format: cell-based; conditions: CellTiter Glo luminescence, read-out: MCL-1 CV SKBR3 EC50
# Method: SKBR3 Cell Viability Assay Materials
# SKBR3 Cells (ATCC HTB-30) were obtained from ATCC (Manassas, Va.) and cultured in McCoy 5A's medium (ATCC 30-2007)+10% fetal bovine serum (SH30071.03, HyClone, Pittsburgh, Pa.) plus 1× Penicillin-Streptomycin L-glutamine (Corning 30-009-C1, Corning, N.Y.)).
# The cell viability assay was conducted in a 384-well tissue culture plate (Grenier 781086, Monroe, N.C.) in a total volume of 70 μL. Test compounds were prepared in 1,000×, serially diluted, and pre-spotted into 384-well tissue culture plate by Echo 555 Liquid Handler (Labcyte Inc., San Jose, Calif.). Seventy μl of 6,000 SKBR3 cells were dispensed into each well of the plate and incubated at 37° C. with 5% CO2 for 72 hours. At the end of incubation, 2× CellTiter Glo (CTG) reagents (1 part buffer with 2 parts substrate) (Promega, Madison, Wis.) were prepared, and the plate and the reagent were equilibrated to room temperature for 30 minutes. CTG reagent was added to each plate by Biomek FX at 20 μL/well with 5 times pipetting and mixing to induce cell lysis. Luminescence was read by Envision multimode reader (PerkinElmer). […] Percent inhibition was calculated as followed: % Inhibition=100%*(Well−Neg)/(Pos−Neg) Neg, negative control, DMSO Pos, positive control, 10 μM Puromycin
# [1] = target: MCL-1/Bim interaction (recombinant human MCL-1 protein, residues 171-327; biotinylated human Bim peptide, residues 51-76) (Homo sapiens (Human), UniProt Q07820); experiment: MCL-1/Bim Binding AlphaLISA Assay; conditions: 0.0625 nM 6xHis-Mcl-1 (171-327), 0.0625 nM biotinylated-Bim peptide
# Method: MCL-1/Bim Binding AlphaLISA Assay.
# Inhibition of the MCL-1 and Bim interaction was measured in the following AlphaLISA assay.
# Recombinant human MCL-1 protein (C-terminal 6×His Tagged Mcl-1 containing residues 171-327) was generated at Gilead Sciences, Inc. (Foster City, Calif.). A biotinylated peptide derived from human Bim (residues 51-76) was purchased from CPC Scientific (Sunnyvale, Calif.). (CPC 834113). AlphaLISA anti-6His-acceptor beads (AL128R), AlphaScreen Streptavidin donor beads (6760002B), and Proxiplate-384 Plus (6008289) were purchased from PerkinElmer.
# The AlphaLISA assay was performed in a 384-well Proxiplate in a total volume of […]. The reaction mixture contained 0.0625 nM 6×His-Mcl-1 (171-327), 0.0625 nM biotinylated-Bim peptide, 10 μg/mL AlphaLISA anti-6×His-AlphaLISA acceptor beads, […] AlphaScreen streptavidin donor beads, and serially diluted test compounds in the binding buffer (20 mM Hepes, pH 7.5 (Teknova H1035); 150 mM NaCl (Promega V4221); 0.002% Brij 35 (Thermo Scientific 20150); 1 mM Dithiothreitol (DTT) Solution (Affymetrix 70726); 0.01% BSA (BioLabs B9000S)). 1,000×test compounds were pre-spotted onto 384-well Proxiplate (Labcyte Echo) by Echo 555 Liquid Handler (Labcyte Inc., San Jose, Calif.) followed by incubation of 5 μl Mcl-1(171-327) for 1 hour. Then 5 μL Bim (51-76) was added and incubated for 2 hours. Five μL AlphaLISA anti-6His-AlphaLISA acceptor beads were then added for 1 hour followed by addition of 5 μL AlphaScreen streptavidin donor beads for 1 hour. The reaction plates were then read on an Envision multimode reader (PerkinElmer) using AlphaScreen settings. […] Percent inhibition was calculated as shown below: % Inhibition=100%*(Well−Neg)/(Pos−Neg) Neg: negative control, DMSO Pos: positive control, no Mcl-1 protein, no biotinylated-Bim peptide
# MCL-1/Bim interaction (recombinant human MCL-1 protein, residues 171-327; biotinylated human Bim peptide, residues 51-76), sequence (Q07820 171-327): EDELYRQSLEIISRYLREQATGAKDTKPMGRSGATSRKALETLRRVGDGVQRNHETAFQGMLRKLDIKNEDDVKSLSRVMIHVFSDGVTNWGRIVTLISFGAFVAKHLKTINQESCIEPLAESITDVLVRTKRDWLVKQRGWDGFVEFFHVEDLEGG
compound,measurement,setting,value
COc1nn(C)cc1C(=O)N[S@@]1(=O)=NC(=O)c2ccc3c(c2)N(C[C@@H]2CC[C@H]2[C@@H](OC(=O)CC(C)C)/C=C/C[C@H](C)C1)C[C@@]1(CCCc2cc(Cl)ccc21)CO3 [Example 381],EC50,"SKBR3 cells; Homo sapiens, SK-BR-3, 72 h",534 nM
same,IC50,[1],0.769 nM
CO[C@H]1/C=C/C[C@H](C)C[S@@](=O)(NC(=O)N[C@H]2C[C@H](OC)C2)=NC(=O)c2ccc3c(c2)N(C[C@@H]2CC[C@H]21)C[C@@]1(CCCc2cc(Cl)ccc21)CO3 [Example 150],EC50,"SKBR3 cells; Homo sapiens, SK-BR-3, 72 h",39.3 nM
same,IC50,[1],0.071 nM
CO[C@H]1/C=C/CCC[S@@](=O)(NC(=O)CCn2ncc3ccccc32)=NC(=O)c2ccc3c(c2)N(C[C@@H]2CC[C@H]21)C[C@@]1(CCCc2cc(Cl)ccc21)CO3 [Example 52],EC50,"SKBR3 cells; Homo sapiens, SK-BR-3, 72 h",1950 nM
same,IC50,[1],0.9 nM
CO[C@H]1/C=C/C[C@H](C)C[S@@](=O)(NC(=O)c2cc3n(c2)CCC3)=NC(=O)c2ccc3c(c2)N(C[C@@H]2CC[C@H]21)C[C@@]1(CCCc2cc(Cl)ccc21)CO3 [Example 136],EC50,"SKBR3 cells; Homo sapiens, SK-BR-3, 72 h",76.4 nM
same,IC50,[1],0.183 nM
CO[C@H]1/C=C/C[C@H](C)C[S@@](=O)(NC(=O)[C@H]2C[C@@H](C(C)(C)O)C2)=NC(=O)c2ccc3c(c2)N(C[C@@H]2CC[C@H]21)C[C@@]1(CCCc2cc(Cl)ccc21)CO3 [Example 178],EC50,"SKBR3 cells; Homo sapiens, SK-BR-3, 72 h",144 nM
same,IC50,[1],0.141 nM
CO[C@H]1/C=C/C[C@H](C)C[S@@](=O)(NC(=O)N[C@@H]2CC[C@@H](O)C2)=NC(=O)c2ccc3c(c2)N(C[C@@H]2CC[C@H]21)C[C@@]1(CCCc2cc(Cl)ccc21)CO3 [Example 222],EC50,"SKBR3 cells; Homo sapiens, SK-BR-3, 72 h",80.1 nM
same,IC50,[1],0.044 nM
CO[C@H]1/C=C/C[C@H](C)C[S@@](=O)(NC(=O)N2CC3(C2)CC3(F)F)=NC(=O)c2ccc3c(c2)N(C[C@@H]2CC[C@H]21)C[C@@]1(CCCc2cc(Cl)ccc21)CO3 [Example 324],EC50,"SKBR3 cells; Homo sapiens, SK-BR-3, 72 h",37.9 nM
same,IC50,[1],0.058 nM
CO[C@H]1/C=C/C[C@H](C)C[S@@](=O)(NC(=O)[C@H]2C[C@@H](OC)C2)=NC(=O)c2ccc3c(c2)N(C[C@@H]2CC[C@H]21)C[C@@]1(CCCc2cc(Cl)ccc21)CO3 [Example 127],EC50,"SKBR3 cells; Homo sapiens, SK-BR-3, 72 h",158 nM
same,IC50,[1],0.085 nM
CO[C@H]1/C=C/C[C@H](C)C[S@@](=O)(NC(=O)c2cc(C(=O)N(C)C)n(C)c2)=NC(=O)c2ccc3c(c2)N(C[C@@H]2CC[C@H]21)C[C@@]1(CCCc2cc(Cl)ccc21)CO3 [Example 332],EC50,"SKBR3 cells; Homo sapiens, SK-BR-3, 72 h",51.1 nM
same,IC50,[1],0.071 nM
CO[C@H]1/C=C/C[C@H](C)C[S@@](=O)(NC(=O)N2CC(C(C)(C)OC)C2)=NC(=O)c2ccc3c(c2)N(C[C@@H]2CC[C@H]21)C[C@@]1(CCCc2cc(Cl)ccc21)CO3 [Example 265],EC50,"SKBR3 cells; Homo sapiens, SK-BR-3, 72 h",96.2 nM
same,IC50,[1],0.046 nM
CO[C@H]1/C=C/C[C@H](C)C[S@@](=O)(NC(=O)N[C@H]2C[C@H](OC(=O)N(C)C)C2)=NC(=O)c2ccc3c(c2)N(C[C@@H]2CC[C@H]21)C[C@@]1(CCCc2cc(Cl)ccc21)CO3 [Example 360],EC50,"SKBR3 cells; Homo sapiens, SK-BR-3, 72 h",139 nM
same,IC50,[1],0.052 nM
CO[C@H]1/C=C/C[C@H](C)C[S@@](=O)(NC(=O)N2CC(C(F)F)C2)=NC(=O)c2ccc3c(c2)N(C[C@@H]2CC[C@H]21)C[C@@]1(CCCc2cc(Cl)ccc21)CO3 [Example 351],EC50,"SKBR3 cells; Homo sapiens, SK-BR-3, 72 h",58.8 nM
same,IC50,[1],0.035 nM
"CO[C@H]1/C=C/C[C@H](C)C[S@@](=O)(NC(=O)N[C@H]2C[C@H]2CO)=NC(=O)c2ccc3c(c2)N(C[C@@H]2CC[C@H]21)C[C@@]1(CCCc2cc(Cl)ccc21)CO3 (single isomer, unassigned) [Example 365]",EC50,"SKBR3 cells; Homo sapiens, SK-BR-3, 72 h",146 nM
same,IC50,[1],0.04 nM
CO[C@H]1/C=C/C[C@H](C)C[S@@](=O)(NC(=O)N2CC(N3CCN4CCOC[C@@H]4C3)C2)=NC(=O)c2ccc3c(c2)N(C[C@@H]2CC[C@H]21)C[C@@]1(CCCc2cc(Cl)ccc21)CO3 [Example 297],EC50,"SKBR3 cells; Homo sapiens, SK-BR-3, 72 hours",69 nM
same,IC50,[1],0.033 nM
CCN(C)C(=O)N[S@]1(=O)=NC(=O)c2ccc3c(c2)N(C[C@@H]2CC[C@H]2[C@@H](OC)/C=C/CCC1)C[C@@]1(CCCc2cc(Cl)ccc21)CO3 [Example 76],EC50,"SKBR3 cells; Homo sapiens, SK-BR-3, 72 h",6330 nM
same,IC50,[1],10.5 nM
COC[C@H]1C[C@H]1NC(=O)N[S@@]1(=O)=NC(=O)c2ccc3c(c2)N(C[C@@H]2CC[C@H]2[C@@H](OC)/C=C/C[C@H](C)C1)C[C@@]1(CCCc2cc(Cl)ccc21)CO3 [Example 316],EC50,SKBR3 cells; 72 hours,116 nM
same,IC50,[1],0.056 nM
CCn1ccc(CCC(=O)N[S@@]2(=O)=NC(=O)c3ccc4c(c3)N(C[C@@H]3CC[C@H]3[C@@H](OC)/C=C/C[C@H](C)[C@H]2C)C[C@@]2(CCCc3cc(Cl)ccc32)CO4)n1 [Example 408],EC50,"SKBR3 cells; Homo sapiens, SK-BR-3, 72 h",241 nM
same,IC50,[1],0.054 nM
CO[C@H]1/C=C/C[C@H](C)C[S@@](=O)(NC(=O)c2csc(C)n2)=NC(=O)c2ccc3c(c2)N(C[C@@H]2CC[C@H]21)C[C@@]1(CCCc2cc(Cl)ccc21)CO3 [Example 146],EC50,"SKBR3 cells; Homo sapiens, SK-BR-3, 72 h",185 nM
same,IC50,[1],0.062 nM
COC(=O)N1CC[C@H](C(=O)N[S@@]2(=O)=NC(=O)c3ccc4c(c3)N(C[C@@H]3CC[C@H]3[C@@H](OC)/C=C/C[C@H](C)C2)C[C@@]2(CCCc3cc(Cl)ccc32)CO4)C1 [Example 439],EC50,"SKBR3 cells; Homo sapiens, SK-BR-3, 72 h",789 nM
same,IC50,[1],0.138 nM
COc1nn(C)cc1C(=O)N[S@@]1(=O)=NC(=O)c2ccc3c(c2)N(C[C@@H]2CC[C@H]2[C@@H](OC)CCC[C@H](C)C1)C[C@@]1(CCCc2cc(Cl)ccc21)CO3 [Example 240],EC50,"SKBR3 cells; Homo sapiens, SK-BR-3, 72 h",91.5 nM
same,IC50,[1],0.018 nM
CO[C@H]1/C=C/CCC[S@@](=O)(NC(=O)CCc2ccccc2)=NC(=O)c2ccc3c(c2)N(C[C@@H]2CC[C@H]21)C[C@@]1(CCCc2cc(Cl)ccc21)CO3 [Example 97],EC50,"SKBR3 cells; Homo sapiens, SK-BR-3, 72 h",788 nM
same,IC50,[1],0.6 nM
CO[C@H]1/C=C/C[C@H](C)C[S@@](=O)(NC(=O)N[C@@H]2CC[C@H]2OC)=NC(=O)c2ccc3c(c2)N(C[C@@H]2CC[C@H]21)C[C@@]1(CCCc2cc(Cl)ccc21)CO3 [Example 179],EC50,"SKBR3 cells; Homo sapiens, SK-BR-3, 72 h",82.5 nM
same,IC50,[1],0.102 nM
CO[C@H]1/C=C/C[C@H](C)C[S@@](=O)(NC(=O)[C@H]2CCOC2)=NC(=O)c2ccc3c(c2)N(C[C@@H]2CC[C@H]21)C[C@@]1(CCCc2cc(Cl)ccc21)CO3 [Example 427],EC50,"SKBR3 cells; Homo sapiens, SK-BR-3, 72 h",332 nM
same,IC50,[1],0.104 nM
CO[C@H]1/C=C/C[C@H](C)C[S@@](=O)(NC(=O)NC2CC2)=NC(=O)c2ccc3c(c2)N(C[C@@H]2CC[C@H]21)C[C@@]1(CCCc2cc(Cl)ccc21)CO3 [Example 144],EC50,"SKBR3 cells; Homo sapiens, SK-BR-3, 72 h",50.8 nM
same,IC50,[1],0.05 nM
CO[C@H]1/C=C/C[C@H](C)C[S@@](=O)(NC(=O)c2cc3n(c2)C(=O)CCC3)=NC(=O)c2ccc3c(c2)N(C[C@@H]2CC[C@H]21)C[C@@]1(CCCc2cc(Cl)ccc21)CO3 [Example 145],EC50,"SKBR3 cells; Homo sapiens, SK-BR-3, 72 h",147 nM
same,IC50,[1],0.037 nM
CO[C@H]1/C=C/C[C@H](C)C[S@@](=O)(NC(=O)N[C@@H]2C[C@H]2C)=NC(=O)c2ccc3c(c2)N(C[C@@H]2CC[C@H]21)C[C@@]1(CCCc2cc(Cl)ccc21)CO3 [Example 433],EC50,"SKBR3 cells; Homo sapiens, SK-BR-3, 72 h",395 nM
same,IC50,[1],0.133 nM
COC[C@@H]1Cn2cc(C(=O)N[S@@]3(=O)=NC(=O)c4ccc5c(c4)N(C[C@@H]4CC[C@H]4[C@@H](OC)/C=C/C[C@H](C)C3)C[C@@]3(CCCc4cc(Cl)ccc43)CO5)cc2CO1 [Example 306],EC50,"SKBR3 cells; Homo sapiens, SK-BR-3, 72 h",43.6 nM
same,IC50,[1],0.057 nM
COc1cn(C)cc1C(=O)N[S@@]1(=O)=NC(=O)c2ccc3c(c2)N(C[C@@H]2CC[C@H]2[C@@H](O)/C=C/C[C@H](C)[C@H]1C)C[C@@]1(CCCc2cc(Cl)ccc21)CO3 [Example 359],EC50,SKBR3 cells; 72 hours,19 nM
same,IC50,[1],0.038 nM
CO[C@H]1/C=C/CCC[S@@](=O)(NC(=O)C2COC2)=NC(=O)c2ccc3c(c2)N(C[C@@H]2CC[C@H]21)C[C@@]1(CCCc2cc(Cl)ccc21)CO3 [Example 24],EC50,"SKBR3 cells; Homo sapiens, SK-BR-3, 72 h",891 nM
same,IC50,[1],0.2 nM
